Format in all cases: cell-based
In one experiment the test system is S. aureus Oxford. The experiment is described as follows: Antibacterial activity, minimum inhibitory concentration, S. aureus Oxford. As to conditions: Staphylococcus aureus, serial dilution, DST agar + 10% horse blood, 10^-2 dilution inoculum, 37°, 18 h. The protocol: (§1) Minimum Inhibitory Concentration μg/ml^a
(§2) ^a Determined by serial dilution on DST agar containing 10% horse
(§3) blood using an inoculum of 0.001 ml of a 10^-2 dilution for
(§4) Grampositive bacteria or a 10^-4 dilution for Gramnegative organisms.
(§5) MIC values were read after incubation at 37° for eighteen hours.

The next experiment deals with S. pyogenes. The experiment in a line: Antibacterial activity, minimum inhibitory concentration, S. pyogenes. The following applies: Streptococcus pyogenes, serial dilution, DST agar + 10% horse blood, 10^-2 dilution inoculum, 37°, 18 h. The protocol:
as §1, §2, §3, §4, §5

A further experiment relates to S. typhimurium. The experiment is described as follows: Antibacterial activity, minimum inhibitory concentration, S. typhimurium. As to conditions: Salmonella enterica, serial dilution, DST agar + 10% horse blood, 10^-4 dilution inoculum, 37°, 18 h. The procedure: as §1, §2, §3, §4, §5
The subject of a further experiment is E. coli. The experiment is described as follows: Antibacterial activity, minimum inhibitory concentration, E. coli. The following applies: Escherichia coli, serial dilution, DST agar + 10% horse blood, 10^-4 dilution inoculum, 37°, 18 h. The procedure:
as §1, §2, §3, §4, §5

A further experiment relates to S. pneumoniae. The experiment in a line: Antibacterial activity, minimum inhibitory concentration, S. pneumoniae. As to conditions: Streptococcus pneumoniae, serial dilution, DST agar + 10% horse blood, 10^-2 dilution inoculum, 37°, 18 h. The procedure: as §1, §2, §3, §4, §5
A further experiment concerns S. aureus Russell. The experiment in a line: Antibacterial activity, minimum inhibitory concentration, S. aureus Russell. The following applies: Staphylococcus aureus; S. aureus Russell (lactamase-producing benzylpenicillin-resistant strain); serial dilution, DST agar + 10% horse blood, 10^-2 dilution inoculum, 37°, 18 h. The procedure: as §1, §2, §3, §4, §5
^b lactamase-producing benzylpenicillinresistant strain.

A further experiment relates to K. aerogenes. The experiment is described as follows: Antibacterial activity, minimum inhibitory concentration, K. aerogenes. As to conditions: Klebsiella aerogenes, serial dilution, DST agar + 10% horse blood, 10^-4 dilution inoculum, 37°, 18 h. The protocol:
as §1, §2, §3, §4, §5

A further experiment deals with P. mirabilis. The experiment is described as follows: Antibacterial activity, minimum inhibitory concentration, P. mirabilis. The following applies: Proteus mirabilis, serial dilution, DST agar + 10% horse blood, 10^-4 dilution inoculum, 37°, 18 h. The procedure: as §1, §2, §3, §4, §5
In the next experiment the test system is B. subtilis. The experiment in a line: Antibacterial activity, minimum inhibitory concentration, B. subtilis. As to conditions: Bacillus subtilis, serial dilution, DST agar + 10% horse blood, 10^-2 dilution inoculum, 37°, 18 h. The procedure: as §1, §2, §3, §4, §5
The test system of another experiment is S. faecalis. The experiment in a line: Antibacterial activity, minimum inhibitory concentration, S. faecalis. The following applies: Enterococcus faecalis, serial dilution, DST agar + 10% horse blood, 10^-2 dilution inoculum, 37°, 18 h. The protocol:
as §1, §2, §3, §4, §5

Molecules are shown by their SMILES. Where a name gives a salt, the structure may show the parent alone.

In the case of `CC1=C(C(=O)O)N2C(=O)[C@H](NC(=O)COc3ccccc3)[C@@H]2c2cnnn21` (relative stereo) [Compound 15, (4bRS,5RS) 5,6-Dihydro-9-methyl-6-oxo-5-phenoxyacetamido-4bH-azeto-[2,1-c]v-triazolo-[1,5-a]-pyrazine-8-carboxylic acid], the MIC in the experiment on S. aureus Oxford was 25 µg/mL; in the experiment with S. pyogenes it was 5 µg/mL; in the experiment with S. typhimurium, over 100 µg/mL; in the experiment with E. coli, over 100 µg/mL; in the experiment with S. pneumoniae, 2.5 µg/mL; in the experiment on S. aureus Russell it was 100 µg/mL. The minimum inhibitory concentration (MIC) in the experiment on K. aerogenes is over 100 µg/mL; in the experiment with P. mirabilis, over 100 µg/mL; in the experiment on B. subtilis, 5 µg/mL; in the experiment on S. faecalis it was over 100 µg/mL.

For the compound `CC1=C(C(=O)O)N2C(=O)[C@H](NC(=O)C(C(=O)Oc3ccccc3)c3ccccc3)[C@@H]2c2cnnn21` (relative stereo) [Compound 22, (4bRS,5RS) 5,6-Dihydro-9-methyl-6-oxo-5-[DL-α-phenoxycarbonylphenylacetamido]-4bH-azeto[2.1-c]-v-triazolo[1.5-a]-pyrazine-8-carboxylic acid], the MIC was over 100 µg/mL in the experiment with S. aureus Oxford; 50 µg/mL with S. typhimurium; 100 µg/mL in the experiment with E. coli; over 100 µg/mL with S. aureus Russell; over 100 µg/mL in the experiment with K. aerogenes; 100 µg/mL in the experiment with P. mirabilis. Besides, the figures for the MIC with B. subtilis and with S. faecalis were 100 µg/mL and over 100 µg/mL, respectively.

On to `CC(=O)N[C@H]1C(=O)N2C(C(=O)O)=C(C)n3nncc3[C@@H]12` (relative stereo) [Compound 35, (4bRS,5RS) 5-Acetamido-5,6-dihydro-9-methyl-6-oxo-4bH-azeto-[2,1-c]-v-triazolo-pyrazine-8-carboxylic acid], for which the MIC in the experiment with S. aureus Oxford is 100 µg/mL; with S. pyogenes, 2.5 µg/mL; in the experiment on S. typhimurium, 100 µg/mL; in the experiment with E. coli, over 100 µg/mL; with S. pneumoniae, 5 µg/mL; with S. aureus Russell, over 100 µg/mL. Further, the minimum inhibitory concentration (MIC) is over 100 µg/mL in the experiment on K. aerogenes, over 100 µg/mL in the experiment with P. mirabilis, 5 µg/mL in the experiment with B. subtilis and over 100 µg/mL with S. faecalis.

In the case of `CC1=C(C(=O)O)N2C(=O)[C@H](NC(=O)Cc3cccs3)[C@@H]2c2cnnn21` (relative stereo) [Compound 55, (4bRS,5RS) 5,6-Dihydro-9-methyl-6-oxo-5-(2-thienylacetamido)-4bH-azeto-[2,1-c]-v-triazolo-[1,5-a]-pyrazine-8-carboxylic acid, p-toluidine salt)], the MIC in the experiment on S. aureus Oxford is 10 µg/mL; in the experiment with S. pyogenes it was 0.2 µg/mL; in the experiment on S. pneumoniae, 2.5 µg/mL; in the experiment on S. aureus Russell, 100 µg/mL; in the experiment on K. aerogenes, 100 µg/mL; in the experiment with P. mirabilis, 10 µg/mL. The minimum inhibitory concentration (MIC) in the experiment with B. subtilis is 0.5 µg/mL; in the experiment with S. faecalis, 25 µg/mL.

Regarding `CC1=C(C(=O)O)N2C(=O)C(NC(=O)[C@H](N)c3ccccc3)C2c2cnnn21` (stereo partly drawn) [Compound 28, (4bRS,5RS)-5,6-Dihydro-9-methyl-6-oxo-5-D-α-phenylglycylamino-4bH-azeto-[2,1-c]-v-triazolo[1,5-a]pyrazine-8-carboxylic acid, p-toluidine salt], the minimum inhibitory concentration (MIC) with S. aureus Oxford was 100 µg/mL; in the experiment with S. pyogenes, 2.5 µg/mL; with S. typhimurium, over 100 µg/mL; in the experiment on E. coli it was over 100 µg/mL; in the experiment on S. pneumoniae, 10 µg/mL; in the experiment on S. aureus Russell it was over 100 µg/mL. In addition, the MIC in the experiment on K. aerogenes is over 100 µg/mL; in the experiment with P. mirabilis, over 100 µg/mL; with B. subtilis, 10 µg/mL; in the experiment with S. faecalis, over 100 µg/mL.

Take `CC1=C(C(=O)O)N2C(=O)[C@H](NC(=O)[C@H](O)c3ccccc3)[C@@H]2c2cnnn21` [Compound 39, (4bR,5R) 5,6-Dihydro-5-D-α-hydroxyphenylacetamido-9-methyl-6-oxo-4bH-azeto-[2,1-c]-v-triazolo-[1,5-a]-pyrazine-8-carboxylic acid]: the MIC in the experiment with S. aureus Oxford, with S. pyogenes, in the experiment with S. typhimurium, with E. coli, in the experiment with S. pneumoniae and in the experiment with S. aureus Russell was over 100 µg/mL throughout. Besides, the minimum inhibitory concentration (MIC) with K. aerogenes is over 100 µg/mL; in the experiment on P. mirabilis it was over 100 µg/mL; with B. subtilis, 100 µg/mL; in the experiment on S. faecalis, over 100 µg/mL.

Consider `CC1=C(C(=O)O)N2C(=O)[C@@H](NC(=O)[C@H](O)c3ccccc3)[C@H]2c2cnnn21` [Compound 40, (4bS,5S)-5,6-Dihydro-5-D-α-hydroxyphenylacetamido-9-methyl-6-oxo-4bH-azeto-[2,1-c]-v-triazolo-[1,5-a]-pyrazine-8-carboxylic acid], for which the MIC is 25 µg/mL in the experiment with S. aureus Oxford; 50 µg/mL in the experiment with S. pyogenes; 25 µg/mL in the experiment with S. typhimurium; over 100 µg/mL in the experiment on E. coli; at most 0.2 µg/mL in the experiment on S. pneumoniae; 100 µg/mL with S. aureus Russell. For the same compound, the MIC stood at 100 µg/mL with K. aerogenes, 10 µg/mL with P. mirabilis, 0.5 µg/mL with B. subtilis and 100 µg/mL in the experiment with S. faecalis.

As for `CC1=C(C(=O)O)N2C(=O)[C@@H](NC(=O)COc3ccccc3)[C@H]2c2cnnn21` [Compound 42, (4bS,5S)-5,6-Dihydro-9-methyl-6-oxo-5-phenoxyacetamido-4bH-azeto-[2,1-c]-v-triazolo-[1,5-a]-pyrazine-8-carboxylic acid], the MIC in the experiment on S. pyogenes is 2.5 µg/mL; with S. typhimurium it was over 50 µg/mL; with E. coli, over 50 µg/mL; with S. pneumoniae it was 5 µg/mL; in the experiment on S. aureus Russell, over 50 µg/mL; in the experiment with K. aerogenes, over 50 µg/mL. Besides, the minimal inhibitory concentration (MIC) with P. mirabilis is over 50 µg/mL; in the experiment with B. subtilis, 0.5 µg/mL; with S. faecalis, 50 µg/mL.

What is called MIC is the lowest concentration found to suppress growth.
